Laboratory results published in US6383490B1, “Anti-cocaine vaccine” (The Scripps Research Institute, priority 1995, dated 2002).

Legend:
[1] = system: cocaine-binding immunoglobulins; assay: Competitive binding studies of the immune response (cocaine-binding immunoglobulins)
Text: Consequently, inhibition of cocaine-binding immunoglobulins would not be expected in vivo from these metabolites.

[2] = Plasma cocaine levels by HPLC; type: in vivo, rat; details: 15 mg/kg i.p.
Text: Analysis of serum immunoglobulin dissociation kinetics, antigen-binding capacity and the effect of antigen dilution (P. Minden, et al., in Handbook of Experimental Immunology. Weir, D. M., Ed., (Davis Co., Philadelphia, 1967), chap. 13, pp. 463-492; M. W. Steward et al., Antibody Affinity: Thermodynamic Aspects and Biological Significance, (CRC Press, Boca Raton, Fla., 1983); H. N. Eisen, in Methods in Medical Research. Eisen, H. N., Ed., (Yearbook Medical Publishers, Chicago, 1964), pp. 106-114; J. H. Hill, et al. Clin. Exp. Immunol. (1973): vol. 15, p 213-224.) were consistent with an in vivo antibody excess having a micromolar average binding constant. […] To complement these experiments, plasma cocaine levels were determined by HPLC according to a modified method of Benuck (M. Benuck, et al., J. Pharmacol. Exp. Ther.(1987): vol. 243, p 144-149) following a 15 mg/kg i.p. injection in a separate group of animals.

CN1[C@H]2CC[C@@H]1[C@@H](C(=O)O)[C@@H](OC(=O)c1ccccc1)C2 [benzoylecgonine]
discrimination for cocaine versus competitor ([1]; immune response to hapten 4 conjugate): greater than 900 fold

COC(=O)[C@H]1[C@@H](OC(=O)c2ccccc2)C[C@@H]2CC[C@H]1N2C [cocaine, (−)-cocaine]
peak plasma concentration [2]: 5.56 ± 0.31 µM | time of peak plasma concentration [2]: 5 min | half-life ([2]; Wistar, rat, plasma, ip): 25 min

COC(=O)[C@@H]1[C@H]2CC[C@@H](C[C@@H]1O)N2C [ecgonine methyl ester]
inhibition of cocaine-binding by competitor [1]: no detectable inhibition
